Assay results published in article PMC3077571 (Nature structural & molecular biology, 2011).

Molecular target: MBP W62F mutant (Escherichia coli, UniProt P0AEX9, S259C/W88F)
Format: binding
Conditions: no sAB

Q: Which “decrease in maltose binding energy caused by W62F mutation” value does the source give for `OC[C@H]1O[C@H](O[C@H]2[C@H](O)[C@@H](O)C(O)O[C@@H]2CO)[C@H](O)[C@@H](O)[C@@H]1O` (mixture of isomers) [maltose] here?
A: The value was ~ 2 kcal/mol.
